From US20080275018A1, “ANTIBACTERIAL AMIDE-MACROCYCLES V” (AiCuris GmbH & Co. KG, priority 2005, published 2008) come the findings set out here.

Converted amounts (≈) assume the structure as drawn. Structures can show the parent of a compound that is named as a salt. Where two headings read alike, the source gives them in different places.

Assay [1] has as its system E. faecium L4001. The assay can be described thus: Minimum inhibitory concentration (MIC), E. faecium L4001. Type of assay: cell-based, Enterococcus faecium. As to conditions: Enterococcus faecium. The protocol:
(§1) The minimum inhibitory concentration (MIC) is the minimum concentration of an antibiotic with which the growth of a test microbe is inhibited over 18-24 h. The inhibitor concentration can in these cases be determined by standard microbiological methods (see, for example, The National Committee for Clinical Laboratory Standards. Methods for dilution antimicrobial susceptibility tests for bacteria that grow aerobically; approved standard-fifth edition. NCCLS document M7-A5 [ISBN 1-56238-394-9]. NCCLS, 940 West Valley Road, Suite 1400, Wayne, Pa. 19087-1898 USA, 2000). The MIC of the compounds of the invention is determined in the liquid dilution test on the 96-well microtiter plate scale. The bacterial microbes are cultivated in a minimal medium (18.5 mM Na2HPO4, 5.7 mM KH2PO4, 9.3 mM NH4Cl, 2.8 mM MgSO4, 17.1 mM NaCl, 0.033 μg/ml thiamine hydrochloride, 1.2 μg/ml nicotinic acid, 0.003 μg/ml biotin, 1% glucose, 25 μg/ml of each proteinogenic amino acid with the exception of phenylalanine; [H.-P. Kroll; unpublished]) with the addition of 0.4% BH broth (test medium). In the case of Enterococcus faecium L4001, heat-inactivated fetal calf serum (FCS; GibcoBRL, Germany) is added to the test medium in a final concentration of 10%. Overnight cultures of the test microbes are diluted to an OD578 of 0.001 (to 0.01 in the case of enterococci) in fresh test medium, and incubated 1:1 with dilutions of the test substances (1:2 dilution steps) in test medium ([…]). The cultures are incubated at 37° C. for 18-24 hours; enterococci in the presence of 5% CO2.
(§2) The lowest substance concentration in each case at which no visible bacterial growth occurs any longer is defined as the MIC.

Assay [2] concerns S. aureus T17. In words: Minimum inhibitory concentration (MIC), biphenomycin-resistant S. aureus T17. Type of assay: cell-based, Staphylococcus aureus. As to conditions: Staphylococcus aureus; biphenomycin-resistant S. aureus T17. The procedure: (§3) The minimum inhibitory concentration (MIC) is the minimum concentration of an antibiotic with which the growth of a test microbe is inhibited over 18-24 h. The inhibitor concentration can in these cases be determined by standard microbiological methods (see, for example, The National Committee for Clinical Laboratory Standards. Methods for dilution antimicrobial susceptibility tests for bacteria that grow aerobically; approved standard-fifth edition. NCCLS document M7-A5 [ISBN 1-56238-394-9]. NCCLS, 940 West Valley Road, Suite 1400, Wayne, Pa. 19087-1898 USA, 2000). The test substances are thereby initially provided in 1:2 dilution series into 96-well round-bottom microtiter plates (Greiner) double-concentrated in 50 μl of test medium. The aerobically growing test microbes (e.g. staphylococci and enterococci), which are incubated overnight on Columbia blood agar plates (Becton-Dickinson), are, after resuspension in 0.9% NaCl, adjusted to a microbe count of about 5×10^7 microbes/ml and then diluted 1:150 in cation-adjusted MH medium (test medium). 50 μL of this suspension are pipetted onto the test preparations provided in the microtiter plates. The cultures are incubated at 37° C. for 18-24 hours. For microaerophilically growing microbes (e.g. streptococci), 2% lysed horse blood in the final concentration is added to the medium and the cultures are incubated in the presence of 5% CO2. The lowest substance concentration in each case at which no visible bacterial growth occurs any longer is defined as the MIC and is reported in μg/ml.
as §1, §2
(§4) The minimum inhibitory concentration (MIC) is the minimum concentration of an antibiotic with which the growth of a test microbe is inhibited over 18-24 h. The inhibitor concentration can in these cases be determined by standard microbiological methods with modified medium in an agar dilution test (see, for example, The National Committee for Clinical Laboratory Standards. Methods for dilution antimicrobial susceptibility tests for bacteria that grow aerobically; approved standard-fifth edition. NCCLS document M7-A5 [ISBN 1-56238-394-9]. NCCLS, 940 West Valley Road, Suite 1400, Wayne, Pa. 19087-1898 USA, 2000). The bacterial microbes are cultivated on 1.5% agar plates which contain 20% defibrinated horse blood. […]

The subject of assay [3] is S. aureus 133. The assay can be described thus: Minimum inhibitory concentration (MIC), S. aureus 133. In kind it is cell-based, Staphylococcus aureus. The procedure: as §3, §1, §2, §4
The target in assay [4] is S. aureus 133 Translation. In words: S. aureus in vitro transcription-translation assay (firefly luciferase, S30 extract). In kind it is biochemical. Particulars: 50% inhibition of the translation of firefly luciferase. From the text:
For the construction of a reporter plasmid which can be used in an in vitro transcription-translation assay from S. aureus the plasmid pBESTluc (Promega Corporation, USA) is used. The E. coli tac promoter present in this plasmid in front of the firefly luciferase is replaced by the capA1 promoter with corresponding Shine-Dalgarno sequence from S. aureus. The primers CAPFor 5′-[…]-[…] GCCA-3′ and CAPRev 5′-[…]-3′ are used for this. The primer CAPFor contains the capA1 promoter, the ribosome binding site and the 5′ region of the luciferase gene. After PCR using pBESTluc as template it is possible to isolate a PCR product which contains the firefly luciferase gene with the fused capA1 promoter. This is, after restriction with ClaI and HindIII, ligated into the vector pBESTluc which has likewise been digested with ClaI and HindIII. The resulting plasmid pla can be replicated in E. coli and be used as template in the S. aureus in vitro transcription-translation test.
Six litres of BHI medium are inoculated with a 250 ml overnight culture of an S. aureus Strain and allowed to grow at 37° C. until the OD600 nm is 2-4. The cells are harvested by centrifugation and washed in 500 ml of cold buffer A (10 mM Tris acetate, pH 8.0, 14 mM magnesium acetate, 1 mM DTT, 1 M KCl). After renewed centrifugation, the cells are washed in 250 ml of cold buffer A with 50 mM KCl, and the resulting pellets are frozen at −20° C. for 60 min. The pellets are thawed on ice in 30 to 60 min and taken up to a total volume of 99 ml in buffer B (10 mM Tris acetate, pH 8.0, 20 mM magnesium acetate, 1 mM DTT, 50 mM KCl). 1.5 ml portions of lysostaphin (0.8 mg/ml) in buffer B are provided in 3 precooled centrifuge cups and each mixed with 33 ml of the cell suspension. The samples are incubated at 37° C., shaking occasionally, for 45 to 60 min, before 150 μl of a 0.5 M DTT solution are added. The lysed cells are centrifuged at 30 000×g and 4° C. for 30 min. The cell pellet is taken up in buffer B and then centrifuged again under the same conditions, and the collected supernatants are combined. The supernatants are centrifuged again under the same conditions, and 0.25 volumes of buffer C (670 mM Tris acetate, pH 8.0, 20 mM magnesium acetate, 7 mM Na3 phosphoenolpyruvate, 7 mM DTT, 5.5 mM ATP, 70 μM amino acids (complete from Promega), 75 μg of pyruvate kinase (Sigma, Germany)/ml are added to the upper ⅔ of the supernatant. The samples are incubated at 37° C. for 30 min. The supernatants are dialysed against 2 l of dialysis buffer (10 mM Tris acetate, pH 8.0, 14 mM magnesium acetate, 1 mM DTT, 60 mM potassium acetate) in a dialysis tube with a 3500 Da cut-off with one buffer change at 4° C. overnight. The dialysate is concentrated to a protein concentration of about 10 mg/ml by
covering the dialysis tube with cold PEG 8000 powder (Sigma, Germany) at 4° C. The S30 extracts can be stored in aliquots at −70° C.
The inhibition of protein biosynthesis of the compounds can be shown in an in vitro transcription-translation assay. The assay is based on the cell-free transcription and translation of firefly luciferase using the reporter plasmid pla as template and cell-free S30 extracts obtained from S. aureus. The activity of the resulting luciferase can be detected by luminescence measurement.
The amount of S30 extract or plasmid pla to be employed must be tested anew for each preparation in order to ensure an optimal concentration in the test. […] of the substance to be tested, dissolved in 5% DMSO, are introduced into an MTP. Then […] of a suitably concentrated plasmid solution pla are added. […]

[5] abbreviates: E. faecium L4001, 10% FCS in test medium, read-out: MIC E. faecium L4001.
[6] abbreviates: Staphylococcus aureus, 133; read-out: MIC S. aureus 133.
Setting [7] is: L4001, read-out: MIC E. faecium L4001.
The mark [8] stands for this setting: Staphylococcus aureus, 133, read-out: MIC S. aureus 133.

On to `NCCC[C@H](NC(=O)[C@@H]1Cc2cccc(c2)-c2ccc(O)c(c2)C[C@H](N)C(=O)N[C@@H](C[C@@H](O)CN)C(=O)N1)C(=O)NCCN` [Example 1, (8S,11S,14S)-14-Amino-N-((1S)-4-amino-1-{[(2-aminoethyl)amino]carbonyl)}butyl)-11-[(2R)-3-amino-2-hydroxypropyl]-17-hydroxy-10,13-dioxo-9,12-diazatricyclo[14.3.1.1^2,6]-henicosa-1 (20),2(21),3,5,16,18-hexaene-8-carboxamide tetrahydrochloride], for which the MIC in assay [1] (setting [5]) came out at 4 µg/mL; in assay [2], 1 µg/mL; in assay [3] (setting [6]), 0.5 µg/mL. Moreover, 70 nM corresponded to half-maximal inhibition in assay [4] (IC50).
The matching figures for `NCCC[C@H](N)CNC(=O)[C@H](CCCN)NC(=O)[C@@H]1Cc2cccc(c2)-c2ccc(O)c(c2)C[C@H](N)C(=O)N[C@@H](CCCN)C(=O)N1` [Example 3, (8S,11S,14S)-14-Amino-N-[(s)-4-amino-1-({[(25)-2,5-diaminopentyl]amino}carbonyl)butyl]-11-(3-aminopropyl)-17-hydroxy-10,13-dioxo-9,12-diazatricyclo[14.3.1.1^2,6]henicosa-1(20),2(21),3,5,16,18-hexaene-8-carboxamide pentahydrochloride]: 16 µg/mL, 2 µg/mL, 2 µg/mL and 200 nM.
For the molecule `NCCNC(=O)[C@@H](N)CCCNC(=O)[C@@H]1Cc2cccc(c2)-c2ccc(O)c(c2)C[C@H](N)C(=O)N[C@@H](C[C@@H](O)CN)C(=O)N1` [Example 5, (8S,11S,14S)-14-Amino-N-{(4S)-4-amino-5-[(2-aminoethyl)amino]-5-oxopentyl}-11-[(2R)-3-amino-2-hydroxypropyl]-17-hydroxy-10,13-dioxo-9,12-diazatricyclo[14.3.1.1^2,6]-henicosa-1(20),2(21),3,5,16,18-hexaene-8-carboxamide tetrahydrochloride], the MIC in assay [1] (setting [7]) was found to be 2 µg/mL; in assay [2], 1 µg/mL; in assay [3] (setting [8]), 1 µg/mL. The molecule further returned an IC50 in assay [4] of 200 nM.
As to `NCCC[C@H](NC(=O)[C@@H]1Cc2cccc(c2)-c2ccc(O)c(c2)C[C@H](N)C(=O)N[C@@H](CCCN)C(=O)N1)C(=O)NCCC[C@H](N)CC(=O)NCCN` [Example 12, (8S,11S,14S)-14-Amino-N-{(1S)-4-amino-1-[({(4S)-4-amino-6-[(2-aminoethyl)amino]-6-oxohexyl}amino)carbonyl]butyl}-11-(3-aminopropyl)-17-hydroxy-10,13-dioxo-9,12-diazatricyclo[14.3.1.1^2,6]henicosa-1(20),2(21),3,5,16,18-hexaene-8-carboxamide pentahydrochloride], the MIC came out at 16 µg/mL in assay [1] (setting [7]), 1 µg/mL in assay [2] and 1 µg/mL in assay [3] (setting [8]).
As for `NCCC[C@H](N)CNC(=O)C[C@@H](N)CCCNC(=O)[C@H](CCCN)NC(=O)[C@@H]1Cc2cccc(c2)-c2ccc(O)c(c2)C[C@H](N)C(=O)N[C@@H](CCCN)C(=O)N1` [Example 15, (8S,11S,14S)-14-Amino-N-((1S)-4-amino-1-{[((4S)-4-amino-6-{[(2S)-2,5-diaminopentyl]-amino}-6-oxohexyl)amino]carbonyl}butyl)-11-(3-aminopropyl)-17-hydroxy-10,13-dioxo-9,12-diazatricyclo[14.3.1.1^2,6]henicosa-1 (20),2(21),3,5,16,18-hexaene-8-carboxamide hexahydrochloride], the MIC in assay [1] (setting [7]) is above 32 µg/mL; in assay [2], 2 µg/mL; in assay [3] (setting [8]), 1 µg/mL. In assay [4], this molecule had an IC50 of 100 nM.
As to `NCCC[C@H](N)CNC(=O)C[C@H](CCCN)NC(=O)[C@@H]1Cc2cccc(c2)-c2ccc(O)c(c2)C[C@H](N)C(=O)N[C@@H](CCCN)C(=O)N1` [Example 19, (8S,11S,14S)-14-Amino-N-[(1S)-4-amino-1-(2-{[(2S)-2,5-diaminopentyl]amino}-2-oxoethyl)butyl]-11-(3-aminopropyl)-17-hydroxy-10,13-dioxo-9,12-diazatricyclo[14.3.1.1^2,6]henicosa-1 (20),2(21),3,5,16,18-hexaene-8-carboxamide penta(hydrotrifluoroacetate)], the results for the minimal inhibitory concentration (MIC) in assay [1] (setting [5]), in assay [2] and in assay [3] (setting [6]) were 16 µg/mL (≈ 24 µM), 1 µg/mL (≈ 1.5 µM) and 1 µg/mL (≈ 1.5 µM), respectively. This molecule also displayed a half-inhibitory concentration (IC50) in assay [4] of 100 nM.
`CN1C(=O)[C@H](C[C@@H](O)CN)NC(=O)[C@@H](N)Cc2cc(ccc2O)-c2cccc(c2)C[C@H]1C(=O)NCCC(=O)NC[C@@H](N)CCCN` [Example 68]: the MIC in assay [1] (setting [5]) was determined as 8 µg/mL (≈ 12.5 µM); in assay [2] it was 1 µg/mL (≈ 1.56 µM); in assay [3] (setting [6]) it was 1 µg/mL (≈ 1.56 µM). Also, the IC50 in assay [4] amounted to 200 nM.

In general, MIC refers to the lowest concentration found to suppress growth. As usually defined, the IC50 is the concentration at which inhibition is half-maximal. Lower therefore signals higher potency.
